“And” between values parts separate entries of the source, which are not always exact repeats. Equal values may be shown once. Inconclusive results and toxic doses are left out.

This test has as its system L1210 leukemia ip in BDF1 mice, survival T/C. As to the kind of experiment: NCI In Vivo Anticancer Drug Screen. Data for tumor model L1210 Leukemia (intraperitoneal) in B6D2F1 (BDF1) mice. Conditions: endpoint: mean survival time, higher = longer survival. In short, it runs like this:
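Value reflects the ratio of survival in compound-treated mice to survival in vehicle-treated controls, with both groups carrying the same transplanted tumor.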

Where [1] appears, read: dose: 200.0 mg/kg/injection, schedule: Q01DX009 (ip), vehicle: saline with Tween-80.
[2] abbreviates: dose: 100.0 mg/kg/injection, schedule: Q04DX003 (ip), vehicle: Klucel (hydroxypropylcellulose) (HPC).
Setting [3] is: dose: 200.0 mg/kg/injection, schedule: Q04DX003 (ip), vehicle: Klucel (hydroxypropylcellulose) (HPC).
Where [4] appears, read: dose: 400.0 mg/kg/injection, schedule: Q04DX003 (ip), vehicle: Klucel (hydroxypropylcellulose) (HPC).
Setting [5] is: dose: 100.0 mg/kg/injection, schedule: Q04DX002 (ip), vehicle: saline with Tween-80.
Setting [6] is: dose: 200.0 mg/kg/injection, schedule: Q04DX002 (ip), vehicle: saline with Tween-80.
[7] abbreviates: dose: 50.0 mg/kg/injection, schedule: Q01DX001 (ip), vehicle: saline.
Setting [8] is: dose: 100.0 mg/kg/injection, schedule: Q01DX001 (ip), vehicle: saline.
[9] abbreviates: dose: 50.0 mg/kg/injection, schedule: Q01DX009 (ip), vehicle: saline with Tween-80.
The mark [10] stands for this setting: dose: 100.0 mg/kg/injection, schedule: Q04DX003 (ip), vehicle: saline with Tween-80.
The mark [11] stands for this setting: dose: 200.0 mg/kg/injection, schedule: Q04DX003 (ip), vehicle: saline with Tween-80.
[12] abbreviates: dose: 100.0 mg/kg/injection, schedule: Q01DX001 (ip), vehicle: carboxymethylcellulose (CMC).
The mark [13] stands for this setting: dose: 200.0 mg/kg/injection, schedule: Q01DX001 (ip), vehicle: carboxymethylcellulose (CMC).
Where [14] appears, read: dose: 100.0 mg/kg/injection, schedule: Q01DX005 (ip), vehicle: saline.
Setting [15] is: dose: 200.0 mg/kg/injection, schedule: Q01DX005 (ip), vehicle: saline.
Setting [16] is: dose: 100.0 mg/kg/injection, schedule: Q01DX009 (ip), vehicle: Klucel (hydroxypropylcellulose) (HPC).
[17] abbreviates: dose: 200.0 mg/kg/injection, schedule: Q01DX009 (ip), vehicle: Klucel (hydroxypropylcellulose) (HPC).
[18] abbreviates: dose: 400.0 mg/kg/injection, schedule: Q01DX009 (ip), vehicle: Klucel (hydroxypropylcellulose) (HPC).

In the case of `CC(=O)Nn1cnc2c(=S)nc[nH]c21`, the T/C is 108 % of control (dose: 20.0 mg/kg/injection, schedule: Q01DX009 (ip), vehicle: saline with Tween-80); 101 % of control (dose: 100.0 mg/kg/injection, schedule: Q01DX001 (ip), vehicle: saline with Tween-80); 106 % of control (dose: 177.0 mg/kg/injection, schedule: Q01DX001 (ip), vehicle: saline with Tween-80); 110 % of control (dose: 200.0 mg/kg/injection, schedule: Q01DX001 (ip), vehicle: saline with Tween-80); 93 % of control under setting [1]; 154 % of control (dose: 266.0 mg/kg/injection, schedule: Q01DX001 (ip), vehicle: saline with Tween-80). The T/C (dose: 400.0 mg/kg/injection, schedule: Q01DX001 (ip), vehicle: saline with Tween-80) was 118 % of control.
For the compound `c1ccc(C(C2CCCCC2)(C2CCCCC2)C(c2ccccc2)(C2CCCCC2)C2CCCCC2)cc1`, the T/C runs as follows: (dose: 25.0 mg/kg/injection, schedule: Q04DX003 (ip), vehicle: Klucel (hydroxypropylcellulose) (HPC)) 105 % of control; (dose: 50.0 mg/kg/injection, schedule: Q04DX003 (ip), vehicle: Klucel (hydroxypropylcellulose) (HPC)) 111 % of control; under setting [2], 92 % of control and 93 % of control; under setting [3], 93 % of control; under setting [4], 87 % of control.
For the compound `O=C(O)c1ccc(CCl)cc1`, the T/C reads like this: under setting [5], 108 % of control; under setting [6], 105 % of control.
Turning to `CN1CCC(C[CH2][Sn]([c]2ccccc2)([c]2ccccc2)[c]2ccccc2)CC1`, the T/C (dose: 25.0 mg/kg/injection, schedule: Q04DX002 (ip), vehicle: saline with Tween-80) is 100 % of control.
Turning to `CN(C)C1CCc2c(ccc3ccccc23)C1=O` (stereo not given), the T/C is 99 % of control (dose: 25.0 mg/kg/injection, schedule: Q01DX001 (ip), vehicle: saline); 99 % of control under setting [7]; 100 % of control under setting [8].
As for `O=[N+]([O-])c1ccc(Cl)c(I)c1`, the T/C was 94 % of control (dose: 12.5 mg/kg/injection, schedule: Q01DX009 (ip), vehicle: saline with Tween-80); 94 % of control (dose: 25.0 mg/kg/injection, schedule: Q01DX009 (ip), vehicle: saline with Tween-80); 92 % of control (dose: 50.0 mg/kg/injection, schedule: Q01DX009 (ip), vehicle: saline + alcohol); 94 % of control under setting [9]; 92 % of control (dose: 200.0 mg/kg/injection, schedule: Q01DX009 (ip), vehicle: saline + alcohol).
For `CC(C)(C)N(CCO)CC1C(c2ccccc2)C1c1ccccc1` (stereo not given), the T/C was 103 % of control (dose: 12.5 mg/kg/injection, schedule: Q04DX002 (ip), vehicle: Klucel (hydroxypropylcellulose) (HPC)); 103 % of control (dose: 25.0 mg/kg/injection, schedule: Q04DX002 (ip), vehicle: Klucel (hydroxypropylcellulose) (HPC)); 97 % of control (dose: 50.0 mg/kg/injection, schedule: Q04DX002 (ip), vehicle: Klucel (hydroxypropylcellulose) (HPC)).
With `Clc1ccccc1C=Nc1ccc2c(c1)Cc1ccccc1-2`, the T/C is, setting by setting: (dose: 100.0 mg/kg/injection, schedule: Q01DX001 (ip), vehicle: Klucel (hydroxypropylcellulose) (HPC)) 87 % of control; under setting [2], 101 % of control; (dose: 200.0 mg/kg/injection, schedule: Q01DX001 (ip), vehicle: Klucel (hydroxypropylcellulose) (HPC)) 93 % of control; under setting [3], 94 % of control; (dose: 400.0 mg/kg/injection, schedule: Q01DX001 (ip), vehicle: Klucel (hydroxypropylcellulose) (HPC)) 87 % of control; under setting [4], 101 % of control.
Regarding `CCC(=O)Nc1cccc(OC(=O)NC(C)CC)c1` (stereo not given), the T/C under setting [10] was 93 % of control; the T/C under setting [11] was 97 % of control; the T/C (dose: 400.0 mg/kg/injection, schedule: Q04DX003 (ip), vehicle: saline with Tween-80) is 92 % of control.
Take `O=C1NC2(CCCCC2)C(=O)N1CCN(CCCl)CCCl`: the T/C is 96 % of control (dose: 1.3 mg/kg/injection, schedule: Q01DX009 (ip), vehicle: saline); 107 % of control (dose: 2.0 mg/kg/injection, schedule: Q01DX009 (ip), vehicle: saline); 117 % of control (dose: 4.1 mg/kg/injection, schedule: Q01DX009 (ip), vehicle: saline); 119 % of control (dose: 6.25 mg/kg/injection, schedule: Q01DX009 (ip), vehicle: saline); 124 % of control (dose: 9.3 mg/kg/injection, schedule: Q01DX009 (ip), vehicle: saline); 122 % of control (dose: 16.0 mg/kg/injection, schedule: Q04DX003 (ip), vehicle: saline). The T/C (dose: 25.0 mg/kg/injection, schedule: Q01DX009 (ip), vehicle: saline) was 106 % of control.
Consider `CCOC(=O)CNc1ccc(F)c(C(F)(F)F)c1`, for which the T/C by setting is: (dose: 100.0 mg/kg/injection, schedule: Q04DX002 (ip), vehicle: saline) 95 % of control and 107 % of control; (dose: 200.0 mg/kg/injection, schedule: Q04DX002 (ip), vehicle: saline) 103 % of control and 92 % of control; (dose: 400.0 mg/kg/injection, schedule: Q04DX002 (ip), vehicle: saline) 110 % of control; (dose: 600.0 mg/kg/injection, schedule: Q04DX002 (ip), vehicle: saline) 95 % of control.
In the case of `CCC(CCC(C)C1CCC2C3CC=C4CC(OC(=O)Nc5ccccc5)CCC4(C)C3CCC12C)C(C)C` (stereo not given), the T/C was 87 % of control under setting [5]; 87 % of control under setting [6]; 94 % of control (dose: 400.0 mg/kg/injection, schedule: Q04DX002 (ip), vehicle: saline with Tween-80).
Take `C(/CCc1ccccc1)=N\Nc1nnc(N/N=C/CCc2ccccc2)c2ccccc12`: the T/C (dose: 50.0 mg/kg/injection, schedule: Q01DX001 (ip), vehicle: carboxymethylcellulose (CMC)) is 102 % of control; the T/C under setting [12] was 105 % of control; the T/C under setting [13] was 102 % of control.
On to `CSc1ncnc2c1ncn2C1OC(COC(N)=O)C(O)C1O` (stereo not given), for which the T/C is, setting by setting: under setting [14], 107 % of control; under setting [15], 114 % of control.
In the case of `COC(=O)C1OC1c1cc(Cl)ccc1OC` (stereo not given), the T/C runs as follows: under setting [8], 102 % of control; (dose: 200.0 mg/kg/injection, schedule: Q01DX001 (ip), vehicle: saline) 94 % of control; (dose: 400.0 mg/kg/injection, schedule: Q01DX001 (ip), vehicle: saline) 94 % of control.
Regarding `Cc1ccc(S(=O)(=O)OCCN(CCOS(=O)(=O)c2ccc(C)cc2)c2ccccc2)cc1`, the T/C (dose: 7.5 mg/kg/injection, schedule: Q01DX015 (ip), vehicle: carboxymethylcellulose (CMC)) is 109 % of control; the T/C under setting [7] was 117 % of control; the T/C (dose: 60.0 mg/kg/injection, schedule: Q01DX015 (ip), vehicle: carboxymethylcellulose (CMC)) was 122 % of control; the T/C under setting [8] was 115 % of control.
On to `O=C(Nc1ccc(F)cc1)Nc1ccccc1C(F)(F)F`, for which the T/C under setting [16] is 95 % of control, the T/C under setting [17] was 97 % of control and the T/C under setting [18] is 88 % of control.
As for `O=C(OCC1OC(n2ccc(=O)nc2[Se])C(OC(=O)c2ccccc2)C1OC(=O)c1ccccc1)c1ccccc1` (stereo not given), the T/C runs as follows: under setting [14], 89 % of control; under setting [15], 96 % of control.
Take `COc1cc2c(cc1OC)/C(=C\C(=O)N1CCCC1=O)CCC2`: the T/C is 96 % of control under setting [16]; 104 % of control under setting [2]; 97 % of control under setting [17]; 102 % of control under setting [3]; 94 % of control under setting [18]; 101 % of control under setting [4].
For `Oc1ccccc1SSc1ccccc1O`, the T/C by setting is: under setting [9], 100 % of control; (dose: 100.0 mg/kg/injection, schedule: Q01DX009 (ip), vehicle: saline with Tween-80) 104 % of control; under setting [1], 103 % of control.
With `O=C(O)c1cccc(Sc2ccccc2)c1`, the T/C is, setting by setting: under setting [12], 100 % of control; under setting [13], 90 % of control; (dose: 400.0 mg/kg/injection, schedule: Q01DX001 (ip), vehicle: carboxymethylcellulose (CMC)) 102 % of control.
Take `COC(=O)/C(C#N)=C\c1ccccc1`: the T/C was 95 % of control under setting [10] and 101 % of control under setting [11].
